This passage reports Ki results from patent US8722683B2, “Benzodioxole piperazine compounds” (Hoffmann LA-Roche Inc., priority 2011, dated 2014).

The target of assay [1] is D3 receptor (Homo sapiens (Human), UniProt P35462). Briefly: Radioligand binding ([3H]-spiperone) to cloned D3 receptor expressed in HEK-293 EBNA cells. The conditions noted are these: HEK293 EBNA membranes, 0.5 nM [3H]-spiperone. The protocol: (§1) HEK293 EBNA cells were transiently transfected with expression plasmids encoding for the human D2 or D3 or for the human 5-HT2A receptor, respectively. The cells were harvested 48 h post-transfection, washed three times with cold PBS and stored at −80° C. prior to use. The pellet was suspended in cold 50 mM Tris-HCl buffer containing 10 mM EDTA (pH 7.4) and was homogenized with a Polytron (Kinematica AG, Basel, Switzerland) for 20-30 sec at 12.000 rpm. After centrifugation at 48.000×g for 30 min at 4° C., the pellet was resuspended in cold 10 mM Tris-HCl buffer containing 0.1 mM EDTA (pH 7.4), homogenized, and centrifuged as above. This pellet was further resuspended in a smaller volume of ice cold 10 mM Tris-HCl buffer containing 0.1 mM EDTA (pH 7.4) and homogenized with a Polytron for 20-30 sec at 12.000 rpm. The protein content of this homogenate was determined with the Bio-Rad (Bradford) Protein Assay (Biorad Laboratories GmbH, München, Germany) according to the instructions of the manufacturer using gamma globulin as the standard. This homogenate was stored at −80° C. in aliquots and thawed immediately prior to use.
Chain of D3 receptor (P35462 whole entry): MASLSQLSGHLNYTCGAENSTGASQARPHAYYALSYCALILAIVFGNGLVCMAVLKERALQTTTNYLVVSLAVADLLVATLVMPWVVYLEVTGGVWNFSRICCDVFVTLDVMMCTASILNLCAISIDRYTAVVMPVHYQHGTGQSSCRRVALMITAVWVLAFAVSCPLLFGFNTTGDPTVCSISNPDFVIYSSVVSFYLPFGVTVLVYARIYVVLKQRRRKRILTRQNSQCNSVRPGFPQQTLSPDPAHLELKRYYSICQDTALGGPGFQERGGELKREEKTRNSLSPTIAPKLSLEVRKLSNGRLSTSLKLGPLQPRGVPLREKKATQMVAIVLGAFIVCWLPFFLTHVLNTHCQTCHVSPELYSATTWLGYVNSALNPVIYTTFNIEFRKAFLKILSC
(§2) Radioligand Binding Assay
(§3) Aliquots of membrane preparations were thawed at RT, resupended in assay buffer (D2, D3: 50 mM Tris-HCl, 120 mM NaCl, 5 mM MgCl2, 1 mM EDTA, 5 mM KCl, 1.5 mM CaCl2, pH=7.4; 5-HT2A: 50 mM Tris-HCl, 10 mM MgCl2, 1 mM EGTA, pH=7.4), homogenized with a Polytron for 20-30 sec at 12.000 rpm and adjusted to a final concentration of approximately 7.5 μg protein/well (D2, D3) and 15 μg protein/well (5-HT2A), respectively.
The binding affinity (Ki) of the compounds was determined using radioligand binding. […] At the end of the incubation, the reaction mixtures were filtered on to unifilter 96-well white microplates with bonded GF/C filters (Packard BioScience, Zürich, Switzerland; preincubated for 1 h in 0.1% polyethylenimine (PEI) in assay buffer) with a Filtermate 196 harvester (Packard BioScience) and washed 3 times with cold assay buffer. The nonspecific binding was determined with equally composed reaction mixtures in the presence of 10 μM unlabelled spiperone. Per well 45 μl of Microscint 40 (Perkin Elmer, Schwerzenbach, Switzerland) was added, plates for sealed, shaken for 20 min and counted for 3 min on a Topcount Microplate Scintillation Counter (Canberra Packard SA, Zürich, Switzerland) with quenching correction.
(§4) The CPM value for each duplicate of a concentration of competing compound was averaged (y1), then the % specific binding was calculated according to the equation (((y1−non-specific)/(total binding−non-specific))×100). Graphs were plotted with the % specific binding using XLfit, a curve fitting program that iteratively plots the data using Levenberg-Marquardt algorithm. The single site competition analysis equation used was y=A+((B−A)/(1+((x/C)D))), where y is the % specific binding, A is the minimum y, B is the maximum y, C is the IC50, x is the log 10 of the concentration of the competing compound and D is the slope of the curve (the Hill Coefficient). […] The affinity constant (Ki) was calculated using the Cheng-Prusoff equation Ki=(IC50/1+([L]/Kd), where [L] is the concentration of radioligand and Kd is the dissociation constant of the radioligand at the receptor as determined by the saturation isotherm.

Assay [2] has as its target D2 receptor (Homo sapiens (Human), UniProt P14416). Nature of the assay: Radioligand binding ([3H]-spiperone) to cloned D2 receptor expressed in HEK-293 EBNA cells. The following applies: HEK293 EBNA membranes, 0.7 nM [3H]-spiperone. The protocol:
as §1, §2, §3
The binding affinity (Ki) of the compounds was determined using radioligand binding. […] The nonspecific binding was determined with equally composed reaction mixtures in the presence of 10 μM unlabelled spiperone. Per well 45 μl of Microscint 40 (Perkin Elmer, Schwerzenbach, Switzerland) was added, plates for sealed, shaken for 20 min and counted for 3 min on a Topcount Microplate Scintillation Counter (Canberra Packard SA, Zürich, Switzerland) with quenching correction.
as §4

pKi: −log10 of the molar value.

Chain of D2 receptor (P14416 whole entry): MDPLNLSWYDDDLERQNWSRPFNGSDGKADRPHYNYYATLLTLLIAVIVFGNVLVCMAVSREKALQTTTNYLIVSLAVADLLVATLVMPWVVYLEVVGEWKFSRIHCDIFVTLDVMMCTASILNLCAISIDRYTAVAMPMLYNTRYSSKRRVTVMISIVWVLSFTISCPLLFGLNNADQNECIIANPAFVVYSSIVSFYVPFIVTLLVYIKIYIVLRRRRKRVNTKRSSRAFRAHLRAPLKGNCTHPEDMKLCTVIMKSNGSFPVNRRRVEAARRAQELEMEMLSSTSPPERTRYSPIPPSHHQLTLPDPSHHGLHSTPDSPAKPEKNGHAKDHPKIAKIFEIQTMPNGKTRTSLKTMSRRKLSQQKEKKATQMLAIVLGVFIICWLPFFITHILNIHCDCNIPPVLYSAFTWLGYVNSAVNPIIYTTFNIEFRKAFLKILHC

For `COC(C)C(=O)N[C@H]1CC[C@H](CCN2CCN(c3cccc4c3OCO4)CC2)CC1` (stereo in doubt) [Example 25, Trans(S)—N-{4-[2-(4-Benzo[1,3]dioxol-4-yl-piperazin-1-yl)-ethyl]-cyclohexyl}-2-methoxy-propionamide], the negative-log Ki (pKi) (commonly the negative decadic logarithm of the Ki, by convention in mol/L) in assay [1] was 7.67; in assay [2], 6.60.

For the compound `CC(=O)N[C@H]1CC[C@H](CCN2CCN(c3cccc4c3OCO4)CC2)CC1` [Example 1, Trans-N-{4-[2-(4-Benzo[1,3]dioxol-4-yl-piperazin-1-yl)-ethyl]-cyclohexyl}-acetamide], the negative-log Ki (pKi) is 8.94 in assay [1] and 7.17 in assay [2].

For `O=C(CO)N[C@H]1CC[C@H](CCN2CCN(c3cccc4c3OCO4)CC2)CC1` [Example 10, Trans-N-{4-[2-(4-Benzo[1,3]dioxol-4-yl-piperazin-1-yl)-ethyl]-cyclohexyl}-2-hydroxy-acetamide], the figures for the negative logarithm of the Ki (pKi) in assay [1] and in assay [2] were 8.77 and 6.74, respectively.

As to `C[C@@H](O)C(=O)N[C@H]1CC[C@H](CCN2CCN(c3cccc4c3OCO4)CC2)CC1` [Example 42, (R)-Trans-N-{4-[2-(4-Benzo[1,3]dioxol-4-yl-piperazin-1-yl)-ethyl]-cyclohexyl}-2-hydroxy-propionamide], the results for the negative-log Ki (pKi) in assay [1] and in assay [2] were 8.66 and 7.05, respectively.

For the compound `O=C(CC1CCOCC1)N[C@H]1CC[C@H](CCN2CCN(c3cccc4c3OCO4)CC2)CC1` [Example 53, N-trans-{4-[2-(4-Benzo[1,3]dioxol-4-yl-piperazin-1-yl)-ethyl]-cyclohexyl}-2-(tetrahydro-pyran-4-yl)-acetamide], the negative-log Ki (pKi) in assay [1] is 8.68; in assay [2], 6.86.

On to `O=C(CC(F)(F)F)N[C@H]1CC[C@H](CCN2CCN(c3cccc4c3OCO4)CC2)CC1` [Example 16, Trans-N-{4-[2-(4-Benzo[1,3]dioxol-4-yl-piperazin-1-yl)-ethyl]-cyclohexyl}-3,3,3-trifluoro-propionamide], for which the pKi in assay [1] is 8.80; in assay [2], 7.04.

`O=C(N[C@H]1CC[C@H](CCN2CCN(c3cccc4c3OCO4)CC2)CC1)c1ccc(F)cc1` [Example 46, Trans-N-{4-[2-(4-Benzo[1,3]dioxol-4-yl-piperazin-1-yl)-ethyl]-cyclohexyl}-4-fluoro-benzamide]: the results for the pKi in assay [1] and in assay [2] were 8.42 and 7.08, respectively.

With `O=C(CC1(O)CCC1)N[C@H]1CC[C@H](CCN2CCN(c3cccc4c3OCO4)CC2)CC1` [Example 28, Trans-N-{4-[2-(4-Benzo[1,3]dioxol-4-yl-piperazin-1-yl)-ethyl]-cyclohexyl}-2-(1-hydroxy-cyclobutyl)-acetamide], the pKi in assay [1] is 8.85; in assay [2], 7.02.

For `CC(C)C(=O)N[C@H]1CC[C@H](CCN2CCN(c3cccc4c3OCO4)CC2)CC1` [Example 17, Trans-N-{4-[2-(4-Benzo[1,3]dioxol-4-yl-piperazin-1-yl)-ethyl]-cyclohexyl}-isobutyramide], the values for the pKi in assay [1] and in assay [2] were 8.74 and 6.86, respectively.

On to `O=C(N[C@H]1CC[C@H](CCN2CCN(c3cccc4c3OCO4)CC2)CC1)C1(O)CC1` [Example 29, Trans-1-Hydroxy-cyclopropanecarboxylic acid {4-[2-(4-benzo[1,3]dioxol-4-yl-piperazin-1-yl)-ethyl]-cyclohexyl}-amide], for which the pKi is 8.73 in assay [1] and 7.21 in assay [2].

On to `COCCC(=O)N[C@H]1CC[C@H](CCN2CCN(c3cccc4c3OCO4)CC2)CC1` [Example 2, Trans-N-{4-[2-(4-Benzo[1,3]dioxol-4-yl-piperazin-1-yl)-ethyl]-cyclohexyl}-3-methoxy-propionamide], for which the pKi is 8.73 in assay [1] and 6.76 in assay [2].

For the compound `CO[C@@H]1CC[C@@H](CC(=O)N[C@H]2CC[C@H](CCN3CCN(c4cccc5c4OCO5)CC3)CC2)C1` [Example 23, Trans-N-{4-[2-(4-Benzo[1,3]dioxol-4-yl-piperazin-1-yl)-ethyl]-cyclohexyl}-2-((1R,3R)-3-methoxy-cyclopentyl)-acetamide], the values for the pKi in assay [1] and in assay [2] were 8.60 and 6.74, respectively.

Take `COC(C)C(=O)N[C@H]1CC[C@H](CCN2CCN(c3cccc4c3OCO4)CC2)CC1` (stereo in doubt) [Example 26, Trans(R)—N-{4-[2-(4-Benzo[1,3]dioxol-4-yl-piperazin-1-yl)-ethyl]-cyclohexyl}-2-methoxy-propionamide]: the figures for the pKi in assay [1] and in assay [2] were 8.31 and 6.82, respectively.

Turning to `O=C(N[C@H]1CC[C@H](CCN2CCN(c3cccc4c3OCO4)CC2)CC1)C1COc2ccccc2C1` (stereo partly drawn) [Example 50, Chroman-3-carboxylic acid-trans-N-{4-[2-(4-benzo[1,3]dioxol-4-yl-piperazin-1-yl)-ethyl]-cyclohexyl}-amide], the pKi is 9.06 in assay [1] and 6.24 in assay [2].

`O=C(CC1CC1)N[C@H]1CC[C@H](CCN2CCN(c3cccc4c3OCO4)CC2)CC1` [Example 8, Trans-N-{4-[2-(4-Benzo[1,3]dioxol-4-yl-piperazin-1-yl)-ethyl]-cyclohexyl}-2-cyclopropyl-acetamide]: the negative logarithm of the Ki (pKi) in assay [1] is 8.91; in assay [2], 6.85.

Regarding `CS(=O)(=O)CC(=O)N[C@H]1CC[C@H](CCN2CCN(c3cccc4c3OCO4)CC2)CC1` [Example 55, Trans-N-{4-[2-(4-Benzo[1,3]dioxol-4-yl-piperazin-1-yl)-ethyl]-cyclohexyl}-2-methanesulfonyl-acetamide], the negative logarithm of the Ki (pKi) in assay [1] is 8.84; in assay [2], 7.02.

On to `CO[C@@H](C(=O)N[C@H]1CC[C@H](CCN2CCN(c3cccc4c3OCO4)CC2)CC1)C(C)C` [Example 64, (R)-trans-N-{4-[2-(4-Benzo[1,3]dioxol-4-yl-piperazin-1-yl)-ethyl]-cyclohexyl}-2-methoxy-3-methyl-butyramide], for which the results for the pKi in assay [1] and in assay [2] were 7.83 and 7.05, respectively.

Take `O=C(N[C@H]1CC[C@H](CCN2CCN(c3cccc4c3OCO4)CC2)CC1)C(F)(F)F` [Example 70, N-trans-{4-[2-(4-Benzo[1,3]dioxol-4-yl-piperazin-1-yl)-ethyl]-cyclohexyl}-2,2,2-trifluoro-acetamide]: the values for the pKi in assay [1] and in assay [2] were 8.31 and 6.95, respectively.

On to `O=C(N[C@H]1CC[C@H](CCN2CCN(c3cccc4c3OCO4)CC2)CC1)c1ccccc1` [Example 11, Trans-N-{4-[2-(4-Benzo[1,3]dioxol-4-yl-piperazin-1-yl)-ethyl]-cyclohexyl}-benzamide], for which the pKi is 8.00 in assay [1] and 6.57 in assay [2].

On to `O=C(N[C@H]1CC[C@H](CCN2CCN(c3cccc4c3OCO4)CC2)CC1)c1cccnc1` [Example 48, Trans-N-{4-[2-(4-Benzo[1,3]dioxol-4-yl-piperazin-1-yl)-ethyl]-cyclohexyl}-nicotinamide], for which the figures for the negative logarithm of the Ki (pKi) in assay [1] and in assay [2] were 8.75 and 7.05, respectively.

Regarding `O=S(=O)(N[C@H]1CC[C@H](CCN2CCN(c3cccc4c3OCO4)CC2)CC1)c1ccc(F)cc1` [Example 68, N-trans-{4-[2-(4-Benzo[1,3]dioxol-4-yl-piperazin-1-yl)-ethyl]-cyclohexyl}-4-fluoro-benzenesulfonamide], the pKi in assay [1] is 8.66; in assay [2] it was 7.34.

For the compound `[2H]C1([2H])Oc2cccc(N3CCN(CC[C@H]4CC[C@H](NC(=O)C(C)(C)O)CC4)CC3)c2O1` [Example 81, N-trans-{4-[2-(4-Benzo(2,2-D2)-[1,3]dioxol-4-yl-piperazin-1-yl)-ethyl]-cyclohexyl}-2-hydroxy-2-methyl-propionamide], the pKi was 8.20 in assay [1] and 7.01 in assay [2].
